Experimental data from patent US20220031800A1, “PEPTIDES FOR TREATING NON-EXUDATIVE MACULAR DEGENERATION AND OTHER DISORDERS OF THE EYE” (Allegro Pharmaceuticals, LLC, priority 2019, published 2022).
Square brackets hold non-standard residues; d marks the D form. Peptide text beside a SMILES is read from it. Cya = N[C@@H](CS(=O)(=O)O)C(=O)O

What was measured:
[1] = test system: study eye of subjects with intermediate non-exudative AMD; assay: Lanthony D-15 color vision test (Total Error Score Hue Style) in Dry AMD study; format: in vivo, human; design: Color vision Total Error Score Hue Style, mean / Color vision Total Error Score Hue Style, median / Color vision Total Error Score Hue Style change, median: scale not given here
Procedure: Numerous study assessments were conducted at various time points throughout the study. Included among these study assessments were; refractive eye examinations, determinations of BCVA AND low-luminance BCVA, Lanthony D-15 color vision test, measurement of intraocular pressure (IOP), Indirect ophthalmoscopy/dilated fundus examinations and spectral-domain optical coherence tomography (SD-OCT). Also, blood and saliva samples were obtained from each subject for genetic analysis. The above-listed study assessments were performed at the time points indicated in Table 1, below: The results of color vision testing of the study subjects are summarized in Table 5, below.

[2] = test system: human retinal Müller cells (MIO-M1); assay: MTT cell viability of human Müller cells (MIO-M1); format: cell-based; conditions: 24 hours, normalized to untreated control as 100%
Procedure: Purpose: To determine the effects of risuteganib and anti-VEGF drugs on the cell viability of cultured human retinal Müller cells (MIO-M1).
Methods: The immortalized human retinal Müller cell line (MIO-M1) was obtained from the Department of Cell Biology of the University College, London. Cells were cultured in Dulbecco's Modified Eagle's Medium (DMEM) and plated in 96-well plates for 24 hours before treatment with 0.5×, 1× or 2× concentrations of 1 mg/50 μL risuteganib, or 1× of ranibizumab, bevacizumab or aflibercept. Dosage was based on clinical dose of each compound. The experiments were repeated 3 times with 7-8 replicates each. After 24 hours of drug treatment, MTT NAD(P)H-dependent colorimetric assay was used to assess the number of viable cells present in the cultures. Absorbance ratios were normalized to untreated control as 100%. Statistical analysis was performed in GraphPad Prism software program.

[3] = test system: human retinal Müller cells (MIO-M1); assay: Mitochondrial membrane potential (JC-1) in human Müller cells (MIO-M1); format: cell-based; conditions: 1× of 1 mg/50 μL, 24 hours; normalized to untreated control as 100%
Procedure: Purpose: To determine the effects of risuteganib on the mitochondrial membrane potential (ΔΨm) in cultured human retinal Müller cells (MIO-M1). Loss of ΔΨm is a marker for early cell death.
Methods: The immortalized human retinal Müller cell line (MIO-M1) was obtained from the Department of Cell Biology of the University College, London. Cells were cultured in Dulbecco's Modified Eagle's Medium (DMEM) and plated in 24-well plates for 24 hours before treatment with 1× concentration of 1 mg/50 μL risuteganib, ranibizumab, bevacizumab, or aflibercept. Dosage was based on clinical dose of each compound. The experiments were repeated 3 times with 6 replicates each. After 24 hours drug treatment, the ΔΨm was measured using the JC-1 kit, a cationic dye that fluoresces red within the mitochondria of healthy, live cells. In the stressed or apoptotic cells, the mitochondrial membrane potential collapses and the cationic dye fluoresces green. First, cells were rinsed with fresh media and then incubated with the JC-1 reagent for 15 minutes at 37 degrees C. The dyes were then removed, and phosphate buffered saline was added to each well. The Red fluorescence (live cells) was read at EX 550 nm and EM 600 nm. The Green fluorescence (apoptotic cells) was read at EX 483 nm and EM 535 nm. The changes in ΔΨm were calculated by the ratio of red to green fluorescence. […]

[4] = test system: primary human RPE cells; assay: Mitochondrial membrane potential (JC-1) in primary human RPE cells exposed to hydroquinone; format: cell-based; conditions: 0.4 mM risuteganib co-treatment with HQ 125-180 uM
Procedure: Purpose: To determine if risuteganib protects against hydroquinone (HQ)-mediated cell injury, elevated ROS level and reduced mitochondrial membrane potential (Δψm) in cultured human RPE cells. Elevated ROS levels increase oxidative stress in the cells, leading to reduced cell health and cell death. Loss of ΔΨm is a marker for early cell death. Methods: Primary human RPE cells were seeded on collagen-coated 96-well plates in triplicates at 8K, 10K and […] cells/well, respectively. Cells reached 80% to 100% confluence 24 hours after plating, and confluent cells were then grown for an additional 4 or 5 days until growth was density arrested. On day 6 after plating, cells in the plate upper half were loaded with 20 μM CM-H2DCFDA (measures ROS level) and in the plate lower half with 10 μM JC-1 (measures Δψm) for 30 minutes at 37° C. […] For the ROS and Δψm assays, a fluorescence plate reader was used to quantify ROS production (490-nm excitation, 522-nm emission), and green monomer of JC-1 (490-nm excitation, 522-nm emission) and red JC-1 aggregate (535-nm excitation, 590-nm emission), respectively. […] The WST reagent was quantified with a plate reader at 440 nm and a reference wavelength at 690 nm. Data were normalized to untreated control as 100% and were expressed as the mean±SD.

[5] = Week 12, Group 2 (1 mg IVT day 1 + wk 16)
[6] = Week 32, Group 1 crossover (sham day 1, 1 mg IVT wk 16)
[7] = Week 32, Group 2 (1 mg IVT day 1 + wk 16)

C[C@@H](O)[C@H](NC(=O)[C@H](CS(=O)(=O)O)NC(=O)CNC(=O)[C@H](CCCNC(=N)N)NC(=O)CN)C(=O)N1CCC[C@H]1C(=O)O [risuteganib, Glycyl-L-arginylglycyl-3-sulfo-L-alanyl-L-threonyl-L-proline] (H-GRG[Cya]TP-OH)
Color vision Total Error Score Hue Style, mean [1, 5]: 43.38 | Color vision Total Error Score Hue Style, median [1, 5]: 39.67 | Color vision Total Error Score Hue Style change, median ([1]; Week 12 change from screening, Group 2 (1 mg IVT day 1 + wk 16)): 2.67 | Color vision Total Error Score Hue Style change, mean ([1]; Week 12 change from screening, Group 2 (1 mg IVT day 1 + wk 16), increase = worsening): 2.41 | Color vision Total Error Score Hue Style, mean [1, 6]: 48.76 | Color vision Total Error Score Hue Style, median [1, 6]: 42.00 | Color vision Total Error Score Hue Style, mean [1, 7]: 39.88 | Color vision Total Error Score Hue Style, median [1, 7]: 24.09 | Color vision Total Error Score Hue Style change, median ([1]; Week 32 change from screening, Group 2 (1 mg IVT day 1 + wk 16)): −3.17 | Color vision Total Error Score Hue Style change, median ([1]; Week 32 change, Group 1 crossover (sham day 1, 1 mg IVT wk 16)): 1.34 | Decrease (improvement) in color vision total error score ([1]; risuteganib responders at Week 32 (FIG. 3)): 13.03 | Cell viability (MTT) ([2]; 0.5× of 1 mg/50 μL): 111.3±2.189 | Cell viability (MTT) ([2]; 1× of 1 mg/50 μL): 113.5±13.5 | Cell viability (MTT) ([2]; 2× of 1 mg/50 μL): 100.3±7.8 | Mitochondrial membrane potential (ΔΨm, red/green JC-1 ratio) [3]: 109.3±4.91 | Improvement of HQ-reduced Δψm [4]: 16%
